# Experiments:
# Type in all cases: in vivo
# [1] = tested on: Echinochloa species (ECHSS); test: Herbicidal mixtures for weed control in transplanted paddy rice (in-water application, visual % injury after 3 weeks); conditions: ECHOR = Echinocloa oryzoides
# Experimental: Weed seeds or nutlets of the desired test plant species were planted in puddled soil (mud) prepared by mixing a non-sterilized mineral soil (28 percent silt, 18 percent clay, and 54 percent sand, with a pH of about 7.3 to 7.8 and an organic matter content of about 1.0 percent) and water at a ratio of 100 kilograms (kg) of soil to 19 L of water. The prepared mud was dispensed in 250 mL aliquots into 480 mL non-perforated plastic pots with a surface area of 91.6 square centimeters leaving a headspace of 3 centimeters in each pot. Rice seeds were planted in Sun Gro MetroMix® 306 planting mixture, which typically has a pH of 6.0 to 6.8 and an organic matter content of about 30 percent, in plastic plug trays. Seedlings at the second or third leaf stage of growth were transplanted into 650 mL of mud contained in 960 mL non-perforated plastic pots with a surface area of 91.6 cm^2 4 days prior to herbicide application. The paddy was created by filling the 3 centimeter headspace of the pots with water. When required to ensure good germination and healthy plants, a fungicide treatment and/or other chemical or physical treatment was applied. The plants were grown for 4-14 days in a greenhouse with an approximate 14 hr photoperiod which was maintained at about 29° C. during the day and 26° C. during the night. Nutrients were added as Osmocote (17:6:10, N:P:K+minor nutrients) at 2 g per cup. Water was added on a regular basis to maintain the paddy flood, and supplemental lighting was provided with overhead metal halide 1000-Watt lamps as necessary. The plants were employed for testing when they reached the second or third true leaf stage.
# Treatments consisted of esters or salts of compound A, compound C, or compound D and various herbicidal components alone and in combination. For technical grade compounds, a weighed amount, determined by the highest rate to be tested, was placed in an individual 120 mL glass vial and was dissolved in 20 mL of acetone to obtain concentrated stock solutions. […] The concentrated stock solutions obtained were diluted with 20 mL of an aqueous mixture containing 2.5% Agri-dex crop oil concentrate (v/v). For formulated compounds, a measured amount, determined by the highest rate to be tested, was placed in an individual 120 mL glass vial and was dissolved in 20 mL of 2.5% (v/v) Agri-dex crop oil concentrate to obtain concentrated stock solutions. The concentrated stock solutions obtained were diluted with 20 mL of acetone. Applications were made by injecting an appropriate amount of the stock solution into the aqueous layer of the paddy. Control plants were treated in the same manner with the solvent blank. All treated plant material received the same concentration of acetone and crop oil concentrate.
# Forms of compounds A, C, and D were applied on an acid equivalent basis. Other herbicidal components were applied on an active ingredient basis and included acetolactate synthase (ALS)-inhibiting herbicides penoxsulam (triazolopyrimidine chemical class) applied as Grasp SC, […] (sulfonylurea chemical class) applied as Sirius G, and bensulfuron-methyl (sulfonylurea chemical class) applied as Londax; acetyl CoA carboxylase (ACCase) inhibiting herbicides cyhalofop-butyl applied as Clincher G and fenoxaprop-p-ethyl applied as Ricestar HT; auxinic herbicide quinclorac applied as Facet 75 DF; phytoene desaturase inhibiting herbicide norflurazon; and p-hydroxyphenylpyruvate dioxygenase (HPPD) inhibiting herbicide sulcotrione applied as Mikado.
# (§1) The treated plants and control plants were placed in a greenhouse as described above and water was added as needed to maintain a paddy flood. After 3 weeks the condition of the test plants as compared with that of the untreated plants was determined visually and scored on a scale of 0 to 100 percent where 0 corresponds to no injury and 100 corresponds to complete kill.
# [2] = tested on: bird's-eye speedwell (Veronica persica L; VERPE); test: Postemergence herbicidal activity of mixtures in cereal crops (greenhouse, visual injury)
# Experimental: (§2) The plants were grown for 7-36 days in a greenhouse with an approximate 14 hour photoperiod which was maintained at about 18° C. during the day and 17° C. during the night. Nutrients and water were added on a regular basis and supplemental lighting was provided with overhead metal halide 1000-Watt lamps as necessary. The plants were employed for testing when they reached the second or third true leaf stage.
# (§3) Treatments consisted of compound (as listed in Tables 1 through 64) and a second cereal herbicide alone and in combination. […] Control plants were sprayed in the same manner with the solvent blank.
# as §1, with “watered by sub-irrigation” for “water was added as needed”, “prevent wash-off of the test compounds.” for “maintain a paddy flood.”, “20-22 days,” for “3 weeks”, “control” for “untreated”
# (§4) The following equation was used to calculate the expected activity of mixtures containing two active ingredients, A and B: Expected=A+B−(A×B/100)
# [3] = tested on: wild pansy (Viola tricolor L; VIOTR); test: as above; conditions: Viola tricolor, post-emergence, read-out: VIOTR Ob
# Experimental: as §2, §3
# as §1, with “watered by sub-irrigation” for “water was added as needed”, “prevent wash-off of the test compounds.” for “maintain a paddy flood.”, “20-22 days,” for “3 weeks”, “control” for “untreated”
# as §4
# [4] = tested on: Cyperus esculentus L. (CYPES); test: Postemergence herbicidal mixtures for weed control in direct seeded rice (greenhouse, visual % injury)
# [5] = tested on: black mustard (Brassica nigra L; BRSNI); test: Postemergence herbicidal activity of mixtures in cereal crops (greenhouse, visual injury); conditions: Brassica, post-emergence, 50 g/ha alone; read-out: BRSNI Ob
# Experimental: Seeds of the desired test plant species were planted in Sun Gro MetroMix® 306 planting mixture, which typically has a pH of 6.0 to 6.8 and an organic matter content of about 30 percent, in plastic pots with a surface area of 103.2 square centimeters (cm^2). When required to ensure good germination and healthy plants, a fungicide treatment and/or other chemical or physical treatment was applied. The plants were grown for 7-36 days in a greenhouse with an approximate 14 hour photoperiod which was maintained at about 18° C. during the day and 17° C. during the night. Nutrients and water were added on a regular basis and supplemental lighting was provided with overhead metal halide 1000-Watt lamps as necessary. The plants were employed for testing when they reached the second or third true leaf stage.
# Treatments consisted of compound (as listed in Tables 1 through 64) and a second cereal herbicide alone and in combination. Weighed amounts of esters (methyl) or salts (TEA [triethylammonium], K [potassium]) of 4-amino-3-chloro -6-(4-chloro-2-fluoro-3-methoxyphenyl)pyridine-2-carboxylic acid (Compound A) or of 6-amino-5-chloro-2-(4-chloro-2-fluoro-3-methoxyphenyl)pyrimidine-4-carboxylic acid (Compound B), were placed in 25 milliliter (mL) glass vials and dissolved in a volume of 97:3 v/v acetone/DMSO to obtain 4.5 milligrams (mg) active ingredient (ai)/mL stock solutions. […] The concentrated stock solutions were diluted to 1.5 mg ai/mL with the addition of 2 volumes of an aqueous mixture containing acetone, water, isopropyl alcohol, DMSO, Agri-dex crop oil concentrate, and Triton® X-77 surfactant in a 64.7:26.0:6.7:2.0:0.7:0.01 v/v ratio. A dilution solution was prepared by mixing 1 volume of 97:3 v/v acetone/DMSO and 2 volumes of an aqueous mixture containing acetone, water, isopropyl alcohol, DMSO, Agri-dex crop oil concentrate, and Triton® X-77 surfactant in a 64.7:26.0:6.7:2.0:0.7:0.01 v/v ratio. Compound requirements are based upon a 12 mL application volume at a rate of 187 liters per hectare (L/ha). Spray solutions of the second cereal herbicide and experimental compound mixtures were prepared by adding the stock solutions to the appropriate amount of dilution solution to form 12 mL spray solution with active ingredients in two- and three-way combinations. Formulated compounds were applied to the plant material with an overhead Mandel track sprayer equipped with 8002E nozzles calibrated to deliver 187 L/ha over an application area of 0.503 square meters (m^2) at a spray height of 18 inches (43 cm) above average plant canopy. Control plants were sprayed in the same manner with the solvent blank.
# as §1, with “watered by sub-irrigation” for “water was added as needed”, “prevent wash-off of the test compounds.” for “maintain a paddy flood.”, “20-22 days,” for “3 weeks”, “control” for “untreated”
# Colby's equation was used to determine the herbicidal effects expected from the mixtures (Colby, S. R. 1967. Calculation of the synergistic and antagonistic response of herbicide combinations. Weeds 15:20-22.).
# as §4
compound,measurement,setting,value
CS(=O)(=O)c1ccc(C(=O)C2C(=O)CCCC2=O)c(Cl)c1 [Sulcotrione],% Injury ECHOR Ob,[1]; Sulcotrione 70 g/ha alone (Compound A Methyl half),10%
same,% Injury ECHOR Ob,[1]; Sulcotrione 70 g/ha alone (Compound A TEA half),10%
"COc1nc(C)nc(NC(=O)NS(=O)(=O)c2ccccc2Cl)n1 [Chlorsulfuron, 2-chloro-N-[[(4-methoxy-6-methyl-1,3,5-triazin-2-yl)amino]carbonyl]benzenesulfonamide, reference compound]",VERPE Ob,"[2]; 2.2 g/ha, Table 28",5%
CCC(C)(CC)c1cc(NC(=O)c2c(OC)cccc2OC)on1 [Isoxaben],pest or weed control at 31.25 g/ha,[3]; 31.25 g/ha alone,3%
same,pest or weed control at 31.25 g/ha,"[2]; Veronica persica, post-emergence, 31.25 g/ha alone, read-out: VERPE Ob",0%
CCN(CC)CC.O=C(O)COc1nc(Cl)c(Cl)cc1Cl [Triclopyr-TEA],% Injury CYPES Ob,[4]; alone 140 g/ha,0%
same,% Injury CYPES Ob,[4]; alone 280 g/ha,0%
CSc1nnc(C(C)(C)C)c(=O)n1N [Metribuzin],pest or weed control at 50 g/ha,[5],50%
same,pest or weed control at 50 g/ha,[3]; 50 g/ha alone,20%
same,pest or weed control at 50 g/ha,"[2]; Veronica persica, post-emergence, 50 g/ha alone, read-out: VERPE Ob",10%

# Source: patent US10556865B2, “Synergistic herbicidal composition containing certain pyridine or pyrimidine carboxylic acids and certain cereal and rice herbicides” (Dow AgroSciences, LLC, priority 2007, dated 2020)
